Assay results published in patent publication US12029774B2, “Açai berry seed extract, fractions of açai berry seed extracts, process for obtaining açai berry seed extracts, pharmaceutical and food compositions and method for the treatment of diseases or disorders with açai berry seed extract” (Power Seed Comércio e Representações Ltda, priority 2018, dated 2024).

System: mesenteric vascular bed
Assay: In vitro arteries relaxation test (perfused mesenteric vascular bed pre-contracted with noradrenaline)
Design: species or system Wistar mice
Details: inferred from HPLC-MSMS/CCD of EHA and fraction 4 with FIGS. 6a and 6e; component not tested alone
Method: The vasodilatory activity of EHA and/or its fractions was determined and quantified by ID50 (Inhibitory Dose at 50%) in preparation of the mesenteric arterial bed of male and adult Wistar mice, in vitro. After anesthesia (thiopental, […] ip), a broad laparotomy is performed to the mice in order to expose the entire mesenteric circulation. The mesenteric artery was isolated and cannulated with cannula and polyethylene. Immediately 1 to 2 ml of Krebs nourishing solution with heparin was injected in order to avoid mesenteric intravascular coagulation. The mesenteric vascular bed was dissected, placed in a heated tub and perfused with Krebs solution at 37° C., by peristaltic pump (4 ml/minute). The perfusion pressure was recorded continuously in computer, through program (PowerLab 4/30). After a period of equilibration, it was added (30 μM) noradrenaline in the Krebs fluid in order to raise the vascular tone of the mesenteric vascular bed. Once the noradrenaline constant pressure response was obtained in the mesenteric vascular bed, increasing doses of EHA and/or fractions in the mesenteric vascular bed were injected. Perfusion pressure reductions induced by extracts and/or fractions were analyzed by the computer and expressed as reduction percent of noradrenaline-induced pressure response. […]

## Oc1cc(O)c2c(c1)O[C@H](c1ccc(O)c(O)c1)[C@H](O)[C@H]2c1c(O)cc(O)c2c1O[C@H](c1ccc(O)c(O)c1)[C@H](O)C2 [procyanidin B2]
  activity of extract component inferred from chromatogram and artery relaxation test: compound with the highest activity
